# How the values were obtained:
# GPR3 [1] = target: T1, GPR3 (Homo sapiens, UniProt P46089); assay: FRET/BRET cAMP biosensor in HEK293A cells cotransfected with GPR3; assay type: cell-based; conditions: cAMP biosensor; pcDNA vs GPR3 transfected HEK293A
# T1 construct: host or cells: HEK293A, transient
# Description: With the first GPR3 ligands identified by using a conformational readout in our hands, we next wanted to understand whether these compounds could have been detected in a cAMP-based assay, which has been used extensively in the past to screen for GPR3 ligands. We therefore tested rac-VH1/52, VH2/93 and VH3/115 in cells expressing a cAMP biosensor.
# 3 Effect of rac-VH1/52, VH2/93 and VH3/115 on GPR3-dependent cAMP production. (a–c) Vehicle-corrected BRET changes induced by rac-VH1/52 (a), VH2/93 (b) or VH3/115 (c) in HEK293A cells transiently transfected with a cAMP BRET sensor along with pcDNA or GPR3. […] Statistical significance was tested using Two-Way ANOVA followed by Sidak multiple comparison (*: […]; **: p < 0.01). […]
# Plasmids and molecular cloning
# The H187-EPAC-FRET sensor7 was kindly provided by K. Jalink (The Netherlands Cancer Institute, Amsterdam, The Nether-lands). The BRET-based cAMP sensor CAMYEL8 was kindly provided by Laura Humphrys (University of Regensburg, Regens-burg, Germany). Plasmids encoding the conformational biosensors α2AAR- and β2AR-HaloTag/Nluc9 and the Gs heterotrimer dissociation sensor10 were previously described. The expression plasmid encoding N-terminally HA-tagged GPR3 (cat. no.
# #GPR003TN00) on a pcDNA3.1+ vector was obtained from the cDNA resource center (cdna.org). The Nluc and HaloTag in-serts were amplified with overhanging restriction sites from β2AAR- HaloTag/Nluc and ligated to the full-length C-terminus or inserted into icl3 of GPR3, respectively, to obtain the conformational biosensor GPR3-HaloTag/Nluc. Point mutants of GPR3-HaloTag/Nluc were generated using the GeneArt Site-directed Mutagenesis System (Thermo Fisher Scientific). All con-structs were verified by sequencing (Eurofins genomics).
# Poly-D-lysine, polyethylenimin hydrochloride (linear; average Mn 20 000; PEI) , […], LPA , forskolin, NECA and bovine serum albumin (BSA) were obtained from Sigma Aldrich (Merck KGaA). Dulbecco's Modified Eagle's Medium (DMEM), Dul-becco's Phosphate -Buffered Saline (DPBS) and G -418 (Geneticin) were from Gibco. Diphenyleneiodonium chloride (DPI) and AF64394 were purchased from Tocris (Bio -Techne). The TMB (3, 3', 5, 5' tetramethyl benzidine) substrate reagent set was from BioLegend. The Nluc substrate furimazine and the red fluorescen t HaloTag dye, HaloTag® NanoBRET® 618 Ligand, were obtained in a single kit from Promega (cat. no. N1662). D-luciferin-sodium and the S1PR1 agonist III were from Med-ChemExpress. The Rluc substrate coelenterazine 400a was from NanoLight Technology (cat. no. 340 -10). White -wall, white - bottomed 96 -well, black -wall, black bottomed and transparent 96 -well microtiter plates were from Brand.
# HEK293A cells were used for transient transfection and grown in Dulbecco’s modified Eagle’s medium (DMEM) supplemented with 2 mM glutamine, 10 % fetal calf serum, streptomycin (0.1 mg/mL), and penicillin (100 U/mL) at 37 °C with 5 % CO2. […]
# (§1) Transient transfection and plating
# Resuspended cells (300,000 cells/mL) were transfected in suspension with a total of 1 μg DNA/mL suspension using PEI (1 mg/ml stock solution; 3 μL PEI solution per μg DNA). For cAMP experiments with FRET- or BRET-based sensors, resuspended cells were transfected with 500 ng pcDNA, wildtype GPR3 or GPR3-HaloTag/Nluc constructs along with 500 ng of the FRET-or BRET-based cAMP sensor per mL cell suspension. For cAMP experiments with GloSensor™ 22F, resuspended cells were transfected with 250 ng pcDNA or GPCR along with 500 ng of a 1:1 mix of pcDNA with the GloSensor™ 22F per mL cell sus-pension. Cells mixed with the transfection reagents were seeded onto poly-D-lysine–precoated, 96-well plates and grown for 48 h at 37 °C with 5 % CO2. Stable α2AAR-, β2AR- or GPR3-HaloTag/Nluc expressing cells were seeded 24 h before the experi-ment at a density of 800,000 cells/mL into white 96-well plates. To monitor changes in BRET in with conformational GPCR […]
# GPR3 [2] = target: T2, GPR3 (Homo sapiens, UniProt P46089, INS231ASEIGTGFPFDPHYVEVLGERMHYVDVGPRDGTPVLFLHGNPTSSYVWRNIIPHVAPTHRCIAPDLIGMGKSDKPDLGYFFDDHVRFMDAFIEALGLEEVVLVIHDWGSALGFHWAKRNPERVKGIAFMEFIRPIPTWDEWPEFARETFQAFRTTDVGRKLIIDQNVFIEGTLPMGVVRPLTEVEMDHYREPFLNPVDREPLWRFPNELPIAGEPANIVALVEEYMDWLHQSPVPKLLFWGTPGVLIPPAEAARLAKSLPNCKAVDIGPGLNLLQEDNPDLIGSEIARWLSTLEISGGS); assay: BRET-based conformational GPR3 biosensor (GPR3-HaloTag/Nluc) in HEK293A cells; assay type: cell-based; conditions: for BRET response of GPR3 biosensor (direction, words): HEK293A
# T2 construct: ligated to the full-length C-terminus; expressed in transfected cells; some experiments transient
# Description: To develop a conformational GPR3 biosensor that can be used in a microtiter well plate format, we employed the intramolecular BRET design previously validated for several GPCRs. − The BRET donor NanoLuc was fused to the receptor’s full-length C-terminus and the self-labeling protein tag, HaloTag, was inserted into GPR3′s third intracellular loop between amino acids Arg231 and His232 (Figure a; sequence in Figure S1). […]
# Plasmids and molecular cloning […]
# Plasmids encoding the conformational biosensors α2AAR- and β2AR-HaloTag/Nluc9 and the Gs heterotrimer dissociation sensor10 were previously described. The expression plasmid encoding N-terminally HA-tagged GPR3 (cat. no.
# #GPR003TN00) on a pcDNA3.1+ vector was obtained from the cDNA resource center (cdna.org). The Nluc and HaloTag in-serts were amplified with overhanging restriction sites from β2AAR- HaloTag/Nluc and ligated to the full-length C-terminus or inserted into icl3 of GPR3, respectively, to obtain the conformational biosensor GPR3-HaloTag/Nluc. Point mutants of GPR3-HaloTag/Nluc were generated using the GeneArt Site-directed Mutagenesis System (Thermo Fisher Scientific). All con-structs were verified by sequencing (Eurofins genomics). […]
# serum albumin (BSA) were obtained from Sigma Aldrich (Merck KGaA). Dulbecco's Modified Eagle's Medium (DMEM), Dul- […]
# Diphenyleneiodonium chloride (DPI) and AF64394 were purchased from Tocris (Bio -Techne). The TMB (3, 3', 5, 5' tetramethyl benzidine) substrate reagent set was […]
# were obtained in a single kit from Promega (cat. no. N1662). D-luciferin-sodium and the S1PR1 agonist III were from Med-ChemExpress. The Rluc substrate coelenterazine 400a was from NanoLight Technology (cat. no. 340 -10). White -wall, white - bottomed 96 -well, black -wall, black bottomed and transparent 96 -well microtiter plates were from Brand.
# HEK293A cells were used for transient transfection and grown in Dulbecco’s modified Eagle’s medium (DMEM) supplemented with 2 mM glutamine, 10 % fetal calf serum, streptomycin (0.1 mg/mL), and penicillin (100 U/mL) at 37 °C with 5 % CO2. For the generation of stable GPR3 -HaloTag/Nluc cells, HEK293A cells grown in T75 flasks were transfected at a confluence of 40 – […]
# Absence of mycoplasma contamination was routinely
# as §1
# Resuspended cells (300,000 cells/mL) were transfected in suspension with a total of 1 μg DNA/mL suspension using PEI (1 mg/ml stock solution; 3 μL PEI solution per μg DNA). […]
# Cells mixed with the transfection reagents were seeded onto poly-D-lysine–precoated, 96-well plates and grown for 48 h at 37 °C with 5 % CO2. Stable α2AAR-, β2AR- or GPR3-HaloTag/Nluc expressing cells were seeded 24 h before the experi-ment at a density of 800,000 cells/mL into white 96-well plates. To monitor changes in BRET in with conformational GPCR […]
# experiment. White plates were used for BRET and luminescence measurements, black plates for FRET experiments and trans-parent plates for absorbance-based quantification of receptor surface expression levels.
# β2AR = assay: β2AR-HaloTag/Nluc conformational biosensor (negative control) in HEK293A cells; assay type: cell-based, human; conditions: β2AR-HaloTag/Nluc as negative control; HEK293A stable
# Protocol: Initially, all 93 molecules were tested for activity at the GPR3 biosensor at a concentration of 1 μM (Figure a). […] Of the five compounds that emerged from the virtual screen, three–hereafter referred to as virtual hit 1–3, VH1/2/3–were selected for in-house chemical synthesis (compounds 52, 93, and 115; cf. Scheme , Figure S6), providing compounds of ≥99% purity for hit validation (NMR spectra: Figures S7–S142; HPLC purity: Figures S143–S218). For VH1, the racemic mix, rac-VH1/52, was synthesized and used for testing. Compounds 52, VH2/93, and VH3/115 (Figure S6) were then validated with the GPR3 biosensor including β2AR-HaloTag/Nluc as a negative control.
# BRET-based GPCR conformational sensor experiments
# Cells expressing the conformational GPCR biosensors were grown for 24 h (stable cells) or 48 h (transiently transfected cells) in white 96-well plates and washed with 100 µl of HBSS. After washing, cells were incubated for 2 minutes with a 1/1000 solution of the furimazine stock solution (Promega; cat. no. N1662). Three baseline BRET reads were recorded and averaged prior to the addition of serial dilutions of ligands or veh icle control and subsequent BRET reads. All experiments were con-ducted at 37 °C. BRE T donor emission was quantified with a 470/80 nm monochromator. BRET acceptor emission was quan-tified using a 660/100 nm monochromator. Experiments were carried out using a CLARIOstar plate reader. […]
# FRET and BRET ratios were defined as acceptor emission/donor emission. […] To quantify ligand-induced changes ΔFRET and ΔBRET were calculated for each well as a percent over basal ([(Ratiostim − Ratiobasal)/Ratiobasal] × 100). […]
# Data from FRET/BRET experiments were fitted using a three-parameter fit. Z-factors expressing the high-throughput suita-bility were calculated with the following equation: […]
# Commercially available chemicals and solvents were purchased from standard commercial suppliers (Merck (Darmstadt, Ger-many), Sigma-Aldrich (Munich, Germany), Acros Organics (Geel, Belgium), Alfa Aesar (Karlsruhe, Germany), abcr (Karlsruhe, Germany), BLD Pharmatech (Reinbek, Germany) or TCI Europe (Zwijndrecht, Belgium) and were used as received. Deuter-ated solvents for nuclear magnetic resonance (1H NMR and 13C NMR) spectra were purchased from Deutero GmbH (Kastel-laun, Germany). All reactions carried out with dry solvents were accomplished in dry flasks under nitrogen or argon atmos-phere. For the preparation of buffers, HPLC eluents, and stock solutions millipore water was used. […] The reactions were monitored by thin layer chromatography (TLC) on Merck silica gel 60 F254 aluminium sheets and spots were visualized under UV light at 254 nm, by potassium permanganate or ninhydrin staining. […]
# T2 sequence (P46089 with tags, fused parts or gaps with the stated changes): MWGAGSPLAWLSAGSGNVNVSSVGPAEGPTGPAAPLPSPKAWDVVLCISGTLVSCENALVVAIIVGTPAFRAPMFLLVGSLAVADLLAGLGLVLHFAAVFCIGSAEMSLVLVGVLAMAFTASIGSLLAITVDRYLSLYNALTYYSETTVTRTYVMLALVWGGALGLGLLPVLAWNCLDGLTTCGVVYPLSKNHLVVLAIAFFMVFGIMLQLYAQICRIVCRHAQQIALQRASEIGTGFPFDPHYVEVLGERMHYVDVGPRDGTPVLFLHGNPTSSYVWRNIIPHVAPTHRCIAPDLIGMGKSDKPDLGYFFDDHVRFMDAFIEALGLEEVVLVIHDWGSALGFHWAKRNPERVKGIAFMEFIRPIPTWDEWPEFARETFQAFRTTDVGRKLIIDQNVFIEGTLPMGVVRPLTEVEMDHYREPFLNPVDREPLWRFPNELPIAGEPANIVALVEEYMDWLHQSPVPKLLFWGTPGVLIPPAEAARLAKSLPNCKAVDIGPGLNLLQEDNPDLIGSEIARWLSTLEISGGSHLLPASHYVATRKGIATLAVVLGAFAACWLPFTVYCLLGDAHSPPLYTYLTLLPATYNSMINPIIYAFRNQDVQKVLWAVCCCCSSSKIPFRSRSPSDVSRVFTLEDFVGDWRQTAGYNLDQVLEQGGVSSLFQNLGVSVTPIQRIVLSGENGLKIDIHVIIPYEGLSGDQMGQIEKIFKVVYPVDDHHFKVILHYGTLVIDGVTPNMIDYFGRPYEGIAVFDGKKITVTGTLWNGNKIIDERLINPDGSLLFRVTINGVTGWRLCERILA
# T1 sequence (P46089 whole entry): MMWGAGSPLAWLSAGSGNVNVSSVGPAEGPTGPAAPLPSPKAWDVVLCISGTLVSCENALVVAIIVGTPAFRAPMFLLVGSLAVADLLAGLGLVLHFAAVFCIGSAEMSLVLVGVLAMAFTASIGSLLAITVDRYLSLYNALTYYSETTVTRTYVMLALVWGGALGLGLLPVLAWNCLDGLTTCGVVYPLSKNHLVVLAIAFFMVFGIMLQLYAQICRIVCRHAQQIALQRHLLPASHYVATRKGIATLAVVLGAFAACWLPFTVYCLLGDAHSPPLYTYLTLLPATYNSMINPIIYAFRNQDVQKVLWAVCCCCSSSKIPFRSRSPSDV
SMILES,GPR3-dependent change in cAMP (GPR3 [1]),"BRET response of GPR3 biosensor (direction, words) (GPR3 [2])","EC50 (GPR3 [2]; transiently expressing HEK293A cells, read-out: EC50 of BRET increase at conformational GPR3 biosensor)",specificity of conformational response for GPR3 vs β2AR-HaloTag/Nluc (β2AR)
"CC(C)Oc1cc(Cl)ccc1CNc1cc(-c2ccccc2)nc2ncnn12 [AF64394, reference compound]",concentration-dependent reduction of cAMP,time- and ligand-concentration-dependent increase in BRET,161 nM,
"CCCCCCCC/C=C\CCCCCCCC(=O)NCCO [OEA, reference compound]",,concentration-dependent decreases in BRET,,
O=C(C1COc2ccccc2O1)N1CCC(Cn2cncn2)(C2CCCCC2)CC1 (stereo not shown) [compound 93],to a much lesser extent,,,concentration-dependent and GPR3-specific conformational changes
"CCCCCCCC/C=C\CCCCCCCC(N)=O [oleamide, reference compound]",,concentration-dependent decreases in BRET,,
